Where two headings read alike, the source gives them in different places. Marks after values point to notes of the source that are not given here.

Data on 3 compounds can be found in US8846019B2, “Use of protoberberines as an active substance regulating the pilosebaceous unit” (Sederma, priority 2005, dated 2014).

Common to all, as to assay type: cell-based
Data set [1] has as its system Normal human keratinocytes (KHN). Put plainly: Antiproliferative effect: BrdU incorporation by human keratinocytes (ELISA). Particulars: for % incorporation of BrdU/control: 48 hours, 10% FCS; for effect on proliferation of keratinocytes (in words): dose-dependent mitotic decrease. How it is done:
This test is based on the determination of the cellular growth rate. Cells are cultivated in complete medium enriched in FCS (10%) so as to obtain a population in active growth, Mitotic activity is assessed by the incorporation of a nucleotide base analog in DNA during replication: […] replaces thymidine. With a product slowing mitosis, a decrease in BrdU incorporation in cell DNA is to be expected.
Normal human keratinocytes (KHN) cultured with 10% FCS were incubated in the presence or absence of palmatine, or chelidonine at various concentrations for 48 hours.
After the first 24 hours, BrdU was added to the culture medium and the mitosis marker was allowed to act for 24 hours.
After 48 hours, the cells were lysed and the BrdU incorporation rate was determined by an ELISA method.
In general terms: Uptake of a labelled nucleoside into DNA is a usual measure of proliferation.

Data set [2] relates to fibroblasts. Put plainly: Toxicity evaluation on fibroblasts, MTT (mitochondrial respiration). The note with it: for MTT % Change: percent of negative controle.
The subject of data set [3] is fibroblasts. Put plainly: Toxicity evaluation on fibroblasts, Hoescht (number of cells). Particulars: for Hoescht % Change: percent of negative controle.
Data set [4] relates to keratinocytes. Put plainly: Toxicity evaluation on keratinocytes, MTT (mitochondrial respiration). The note with it: for MTT % Change: percent of negative controle.
In data set [5] the test system is keratinocytes. The data set is described as follows: Toxicity evaluation on keratinocytes, Hoescht (number of cells). Particulars: for Hoescht % Change: percent of negative controle.
The subject of data set [6] is keratinocytes. The data set is described as follows: Variation of the incorporation of BrdU, keratinocytes with palmatine or berberine. Particulars: 48 hours of contact.
The mark [7] stands for this setting: fibroblasts, at the tested concentrations.
Setting [8] is: fibroblasts, concentration 3.10^E−4%.
Setting [9] is: fibroblasts, concentration 9.10^E−4%.
Where [10] appears, read: keratinocytes, at the tested concentrations.
[11] abbreviates: keratinocytes, concentration 3.10^E−4%.
The mark [12] stands for this setting: keratinocytes, concentration 10^E−3%.

With `COc1cc2c(cc1OC)-c1cc3ccc(OC)c(OC)c3c[n+]1CC2` [palmatine], the entries for the “% incorporation of BrdU/control” value in data set [1] (concentration 3 × 10E−4%), in data set [1] (concentration 10E−4%) and in data set [1] (concentration 10 × 10E−4%) were −35%, −21% and −58%, respectively. Moreover, the “effect on proliferation of keratinocytes (in words)” value in data set [1] is on record as “inhibit the proliferation of keratinocytes”. The “toxicity on fibroblasts (conclusion in words)” value with fibroblasts [2] (fibroblasts, MTT and Hoescht) is “not toxic on fibroblasts”. Besides, the “change of the mitochondrial respiration (in words)” value (shortened to “change … (in words)”) in the data set with fibroblasts [2] (setting [7]) and with keratinocytes [4] (setting [10]) was “does not engender a change of the mitochondrial respiration” in each case. In addition, the “MTT % Change” value in the data set with fibroblasts [2] (setting [8]) is on record as 0 dns %; in the data set on fibroblasts [2] (setting [9]), −9 dns %; in the data set on keratinocytes [4] (setting [11]), 7 dns %; in the data set with keratinocytes [4] (setting [12]), 5 dns %. For the same compound, the “effect on the number of fibroblasts (in words)” value in the data set with fibroblasts [3] (setting [7]) was “does not act on the number of fibroblasts”. Besides, the “Hoescht % Change” value with fibroblasts [3] (setting [8]) is given as 1dns %; with fibroblasts [3] (setting [9]), −1 dns %; in the data set with keratinocytes [5] (setting [11]) it was −1 dns %; with keratinocytes [5] (setting [12]), −2 dns %. Further, the “toxicity on keratinocytes (conclusion in words)” value with keratinocytes [4] (keratinocytes, with respect to the different results) is given as “not toxic”. Also, the “effect on the number of keratinocytes (in words)” value with keratinocytes [5] (setting [10]) is “does not act on the number of keratinocytes”. Also, the “% Change of the incorporation of BrdU” value in the data set with keratinocytes [6] (concentration 3.10^E−4%) is −16%**; in the data set on keratinocytes [6] (concentration 10^E−3%), −21%**.

For `COc1ccc2cc3[n+](cc2c1OC)CCc1cc2c(cc1-3)OCO2` [BERBERINE, berberine], in the data set on fibroblasts [2], the “change … (in words)” value was “engenders a change of the mitochondrial respiration” and the “toxicity on fibroblasts (conclusion in words)” value is “toxic effect on fibroblasts”. Moreover, the “effect on the number of fibroblasts (in words)” value in the data set on fibroblasts [3] is reported as “a decrease on the number of fibroblasts”. Further, in the data set with keratinocytes [4], the “change … (in words)” value is reported as “engenders a change of the mitochondrial respiration” and the “toxicity on keratinocytes (conclusion in words)” value is given as “toxic effect”. In addition, the “effect on the number of keratinocytes (in words)” value in the data set with keratinocytes [5] is “a decrease on the number of keratinocytes”. Besides, the “% Change of the incorporation of BrdU” value in the data set with keratinocytes [6] (concentration 3.10^E−4%) is listed as −36%**. Further, in the data set on keratinocytes [6] (concentration 10^E−3%), the “% Change of the incorporation of BrdU” value is recorded as −65%**.

For `CN1Cc2c(ccc3c2OCO3)[C@@H]2[C@H]1c1cc3c(cc1C[C@@H]2O)OCO3` [Chelidonine, chelidonine], the “% incorporation of BrdU/control” value is −41% in data set [1] (concentration 3 × 10E−4%), −31% in data set [1] (concentration 10E−4%) and −74% in data set [1] (concentration 10 × 10E−4%). For the same compound, the “effect on proliferation of keratinocytes (in words)” value in data set [1] was “inhibit the proliferation of keratinocytes”.
